{
  "source": "patent EP1304107A2",
  "about": "“Use of oxazolidinines derivatives for treating psoriasis” (PHARMACIA & UPJOHN COMPANY, priority 1997, dated 1999)",
  "key": {"psoriasis": {"tested_on": "psoriasis", "test": "Case report: treatment of a patient with chronic psoriasis (EXAMPLE A)", "format": "in vivo, human", "details": "person", "description": "They had chronic psoriatic lesions of both elbows, groin, left leg, right leg, and lower back. The lesions were treated in the past with coal tar and topical steroids but not UV light. They were allergic to the excipients in the steroidal topical preparations.\nAfter six months it had returned to the pretreatment state."}, "arthritis": {"tested_on": "arthritis", "test": "Case report: patient with arthritis treated for pneumonia (EXAMPLE B)", "format": "in vivo, human", "details": "person (Subject No 1912); 625 mg twice daily intravenously for 3 days, then 8 days oral at the same dose; taking no medications at follow up"}, "[1]": {"details": "after 625 mg twice daily for fourteen days"}},
  "data": [
    {"smiles": "CC(=O)NC[C@H]1CN(c2ccc(N3CCOCC3)c(F)c2)C(=O)O1", "note": "[EXAMPLE 2, (S)-N-[[3-[3-Fluoro-4-(4-morpholinyl)phenyl]-2-oxo-5-oxazolidinyl]methyl]acetamide]", "values": [
      {"measurement": "improvement in their psoriasis", "setting": "psoriasis; 625 mg twice daily for fourteen days (IV five days, then orally nine days), onset as soon as they started taking the medication", "result": "immediate improvement"},
      {"measurement": "clearing of the psoriasis", "setting": "psoriasis; 625 mg twice daily for fourteen days, no other psoriasis treatment, from the time they took the medication", "result": "complete clearing"},
      {"measurement": "time until psoriasis gradually began to return", "setting": "psoriasis; [1]", "result": "three"},
      {"measurement": "time until psoriasis had returned to the pretreatment state", "setting": "psoriasis; [1]", "result": "six"},
      {"measurement": "arthritis status stated by the patient at long term follow up", "setting": "arthritis", "result": "arthritis was gone"}
    ]}
  ]
}
